# Values of other authors as cited in publication PMC4667793 (Journal of medicinal chemistry, 2015).
# Counter-ions that a name gives are not always drawn.
# Molecular target: MtBPL (Mycobacterium tuberculosis, UniProt I6YFP0)
# Settings: binding MtBPL; cited from earlier work
# Sequence of MtBPL (I6YFP0 whole entry, looked up): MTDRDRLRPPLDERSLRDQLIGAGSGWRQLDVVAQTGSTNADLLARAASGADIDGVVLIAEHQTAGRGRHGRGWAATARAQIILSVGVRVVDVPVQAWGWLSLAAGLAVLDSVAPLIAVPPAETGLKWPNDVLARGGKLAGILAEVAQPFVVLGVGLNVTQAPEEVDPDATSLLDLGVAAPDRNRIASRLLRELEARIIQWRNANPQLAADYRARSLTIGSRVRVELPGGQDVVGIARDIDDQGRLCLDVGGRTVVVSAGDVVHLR
smiles,measurement,value
"Nc1ncnc2c1ncn2[C@@H]1O[C@H](CNS(=O)(=O)NC(=O)CCCC[C@@H]2SC[C@@H]3NC(=O)N[C@@H]32)[C@@H](O)[C@H]1O [Compound 14, 5′-[N-(D-biotinoyl)sulfamoyl]amino-5′-deoxyadenosine triethylammonium salt]",times more tightly bound than biotin,"more than 1,700 times"
